Data from patent publication US20230158151A1 (NURIX THERAPEUTICS, INC., priority 2021, published 2023).

Target: T1, ITK (Homo sapiens, UniProt Q08881)
T1 construct: Compounds provided herein were assayed in vitro with ITK HiBit cell lines; endogenous in cells; host or cells: Molt4 (ATCC CRL-1552 [sic]), monoclonal clone 1C10
T1 sequence (Q08881 1-620): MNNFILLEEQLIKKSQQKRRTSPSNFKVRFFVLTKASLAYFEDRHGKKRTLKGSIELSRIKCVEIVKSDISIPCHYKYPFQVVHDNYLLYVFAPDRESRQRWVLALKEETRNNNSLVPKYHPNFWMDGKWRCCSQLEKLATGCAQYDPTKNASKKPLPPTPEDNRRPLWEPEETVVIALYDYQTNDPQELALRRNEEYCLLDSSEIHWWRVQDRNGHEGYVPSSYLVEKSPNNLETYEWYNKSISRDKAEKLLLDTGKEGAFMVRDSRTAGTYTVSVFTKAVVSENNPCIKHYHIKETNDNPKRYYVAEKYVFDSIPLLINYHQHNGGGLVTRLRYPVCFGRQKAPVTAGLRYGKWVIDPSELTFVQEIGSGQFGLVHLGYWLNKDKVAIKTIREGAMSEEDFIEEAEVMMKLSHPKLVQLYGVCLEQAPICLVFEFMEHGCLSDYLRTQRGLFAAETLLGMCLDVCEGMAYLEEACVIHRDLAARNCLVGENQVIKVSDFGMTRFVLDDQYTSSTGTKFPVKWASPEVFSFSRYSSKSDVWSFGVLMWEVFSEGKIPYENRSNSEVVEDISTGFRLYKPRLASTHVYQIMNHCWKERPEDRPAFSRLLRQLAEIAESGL
Assay: ITK Degradation HiBiT Assay
Assay type: cell-based
Conditions: C-terminal HiBiT-tagged Molt4 cells, 4 hrs incubation; for Dmax: MOLT-4, read-out: HiBiT DMax (%)
Method: Compounds provided herein were assayed in vitro with ITK HiBit cell lines. Compound dilution series (11-point, 5 fold dilutions in DMSO, columns 2-12 with replicate in rows A/B, C/D, E/F, G, H at 2000× the final required concentrations were prepared in 96 well plate (Falcon, cat. no. 353077). Column 1, rows A-H were control DMSO. The 2000× solutions ranged from 2 mM to 1.024 nM (final assay concentration range 1 μM to […]). The 2000× solutions were added to cells in […], for a final DMSO concentration of 0.5% and final assay compound concentration of 1×. For the cells, C-terminal HiBiT-tagged Molt4 cells (ATCC CRL-1552, monoclonal cell line clone 1C10) were plated at 1×10^6 cells/mL, 100 μL/well ([…]) in complete RPMI (10% FBS, 1% L-glutamine). The cells were incubated with compound 32 and compound 30 for 4 hrs at 32° C./6% CO2.
Following incubation, 100 μL of complete Nano-Glo HiBiT Lytic Detection Reagent (Nano-Glo HiBiT Lytic Buffer with 1:50 Nano-Glo HiBiT Lytic Substrate and 1:100 LgBiT Protein; Promega cat. no. N3O40) was added. Cells were further incubated for 10 min at room temperature (RT). Luminescence units (LU) were read on an EnVision plate reader (Perkin Elmer, 0.1 sec per well). Percent ITK remaining per sample was calculated as follows: […]
Using Graphpad Prism, % ITK remaining values were plotted as a function of compound concentration. To determine DC50 and Dmax values, resulting curves were fit to the Prism curve-fitting equation “log(inhibitor) vs response−Variable slope (four parameters)” (reported best fit value IC50 used as DC50). ITK was measured with antibody-based MSD (Meso-Scale Discovery) assays shown below.

CC1(C)CCc2c(-c3cc4ccc(C(=O)N5CCN(CCC#Cc6ccc(C7CCC(=O)NC7=O)cc6)CC5)cc4[nH]3)n[nH]c2C1 (stereo not shown) [Compound 34, 3-(4-(4-(4-(2-(6,6-dimethyl-4,5,6,7-tetrahydro-1H-indazol-3-yl)-1H-indole-6-carbonyl)piperazin-1-yl)but-1-yn-1-yl)phenyl)piperidine-2,6-dione]
DC50: 2.6 nM | Dmax: 60%

C[C@@]12Cc3[nH]nc(C(=O)Nc4cnn(C5CN(CC6CCN(c7ccc(C8CCC(=O)NC8=O)cn7)CC6)C5)c4)c3C[C@@H]1C2(F)F (stereo partly drawn) [Compound 12, (4aS,5aR)—N-(1-(1-((1-(5-(2,6-dioxopiperidin-3-yl)pyridin-2-yl)piperidin-4-yl)methyl)azetidin-3-yl)-1H-pyrazol-4-yl)-5,5-difluoro-5a-methyl-1,4,4a,5,5a,6-hexahydrocyclopropa[f]indazole-3-carboxamide]
DC50: 0.25 nM | Dmax: 85%

CN(C(=O)C1CCN(CC2CCN(c3ccc(C4CCC(=O)NC4=O)cn3)CC2)CC1)c1ccc2cc(-c3n[nH]c4c3C[C@@H]3C(F)(F)[C@]3(C)C4)[nH]c2c1 (stereo partly drawn) [Compound 5, N-(2-((4aS,5aR)-5,5-difluoro-5a-methyl-1,4,4a,5,5a,6-hexahydrocyclopropa[f]indazol-3-yl)-1H-indol-6-yl)-1-((1-(5-(2,6-dioxopiperidin-3-yl)pyridin-2-yl)piperidin-4-yl)methyl)-N-methylpiperidine-4-carboxamide]
Dmax: 85%

C[C@@]12Cc3[nH]nc(-c4cc5ccc(C(=O)N6CCN(CC7CCN(c8ccc(C9CCC(=O)NC9=O)cn8)CC7)CC6)cc5[nH]4)c3C[C@@H]1C2(F)F (stereo partly drawn) [Compound 20, 3-(6-(4-((4-(2-((4aS,5aR)-5,5-difluoro-5a-methyl-1,4,4a,5,5a,6-hexahydrocyclopropa[f]indazol-3-yl)-1H-indole-6-carbonyl)piperazin-1-yl)methyl)piperidin-1-yl)pyridin-3-yl)piperidine-2,6-dione]
DC50: < 0.001 nM | Dmax: 83%

C[C@@]12Cc3[nH]nc(C(=O)Nc4cnn(C5CN(C(=O)C6CCN(c7ccc(C8CCC(=O)NC8=O)cn7)CC6)C5)c4)c3C[C@@H]1C2(F)F (stereo partly drawn) [Compound 13, (4aS,5aR)—N-(1-(1-(1-(5-(2,6-dioxopiperidin-3-yl)pyridin-2-yl)piperidine-4-carbonyl)azetidin-3-yl)-1H-pyrazol-4-yl)-5,5-difluoro-5a-methyl-1,4,4a,5,5a,6-hexahydrocyclopropa[f]indazole-3-carboxamide]
DC50: 1.3 nM | Dmax: 91%

CN(C(=O)CCC1CCN(c2ccc(C3CCC(=O)NC3=O)cn2)C1)c1ccc2cc(-c3n[nH]c4c3C[C@@H]3C(F)(F)[C@]3(C)C4)[nH]c2c1 (stereo partly drawn) [Compound 25, N-(2-((4aS,5aR)-5,5-difluoro-5a-methyl-1,4,4a,5,5a,6-hexahydrocyclopropa[f]indazol-3-yl)-1H-indol-6-yl)-3-(1-(5-(2,6-dioxopiperidin-3-yl)pyridin-2-yl)pyrrolidin-3-yl)-N-methylpropanamide]
Dmax: 48%

C[C@@]12Cc3[nH]nc(C(=O)Nc4cnn(C5CN(C(=O)C6CN(c7ccc(C8CCC(=O)NC8=O)cn7)C6)C5)c4)c3C[C@@H]1C2(F)F (stereo partly drawn) [Compound 14, (4aS,5aR)—N-(1-(1-(1-(5-(2,6-dioxopiperidin-3-yl)pyridin-2-yl)azetidine-3-carbonyl)azetidin-3-yl)-1H-pyrazol-4-yl)-5,5-difluoro-5a-methyl-1,4,4a,5,5a,6-hexahydrocyclopropa[f]indazole-3-carboxamide]
Dmax: 78%

C[C@@]12Cc3[nH]nc(-c4cc5ccc(N6CCC7(CCN(CCC8CCN(c9ccc(C%10CCC(=O)NC%10=O)cn9)CC8)CC7)C6=O)cc5[nH]4)c3C[C@@H]1C2(F)F (stereo partly drawn) [Compound 17, 3-(6-(4-(2-(2-(2-((4aS,5aR)-5,5-difluoro-5a-methyl-1,4,4a,5,5a,6-hexahydrocyclopropa[f]indazol-3-yl)-1H-indol-6-yl)-1-oxo-2,8-diazaspiro[4.5]decan-8-yl)ethyl)piperidin-1-yl)pyridin-3-yl)piperidine-2,6-dione]
DC50: < 0.01 nM | Dmax: 89%
